Columns and labels:
[1] = Testing of stability at different pH values (HPLC); type: physicochemical
Experimental: 10 mg of the sample was weighed and 10 mL of an aqueous solution at a different pH value was added, followed by ultrasonic dissolving and filtration. HPLC testing was then performed.

[2] = Testing of solubility at different pH values
Experimental: First, a series of solutions with pH-5-8 were prepared using phosphoric acid and NaOH.

[3] = tested on: corneal neovascularization in New Zealand rabbits with alkali burn; test: Effects on corneal neovascularization in New Zealand rabbits with alkali burn; type: in vivo; conditions: 1% eye drops 3 times a day; for Formation of new blood vessels in the cornea (slit-lamp photographs, FIG. 2), comparison of groups: preliminary conclusion from the figures; for Number of New Zealand rabbit eyes with appearance of fluorescein-stained spots / Number of New Zealand rabbit eyes with conjunctival congestion / Number of New Zealand rabbit eyes with corneal edema / Number of New Zealand rabbit eyes with neovascularization: 2 drops, 12 eyes per group (10 for SZY1905-P32)
Experimental: Twenty-four New Zealand rabbits were first given intravenous anesthesia with a chloralhydrate solution at a dose of about 0.5 mL/kg, followed by ocular surface anesthesia with 0.5% tetracaine hydrochloride eye drops. A piece of filter paper with a diameter of about 8 mm was immersed in 1 mol/L NaOH solution for 1 minute to reach saturation. The saturated filter paper was placed in the center of the cornea for 1 minute and then removed, immediately followed by repeatedly rinsing the cornea and the conjunctival sac with 0.9% sodium chloride injection for 1 minute. After that, tobramycin dexamethasone sodium phosphate eye drops were administered. After modeling, the twenty-four animals were divided into four groups, which were: Model group; SZY1905-P30 eye drops-administered group; […] The eye drops were administered 3 times a day, 2 drops each time. The Model group was not administered with any drugs. […] The cornea was then stained with fluorescein sodium, and observed under the slit-lamp microscope and photographed.

[4] = 1st day of the modeling (0 day of administration)
[5] = 7th day of the modeling (6th day of administration)
[6] = 14th day of the modeling (13th day of administration)

SMILES | Stability, 0 day (%) ([1]; Purified water, 10 mg in 10 mL) | Stability, 8th day (%) ([1]; Purified water, 10 mg in 10 mL) | Stability, 20th day (%) ([1]; Purified water, 10 mg in 10 mL) | Stability, 30th day (%) ([1]; Purified water, 10 mg in 10 mL) | Stability, 0 day (%) ([1]; pH = 5.0, 10 mg in 10 mL) | Stability, 8th day (%) ([1]; pH = 5.0, 10 mg in 10 mL) | Stability, 20th day (%) ([1]; pH = 5.0, 10 mg in 10 mL) | Formation of new blood vessels in the cornea (slit-lamp photographs, FIG. 2), comparison of groups [3] | Number of New Zealand rabbit eyes with appearance of fluorescein-stained spots [3, 4] | Number of New Zealand rabbit eyes with conjunctival congestion [3, 4] | Number of New Zealand rabbit eyes with corneal edema [3, 4] | Number of New Zealand rabbit eyes with neovascularization [3, 4] | Number of New Zealand rabbit eyes with appearance of fluorescein-stained spots [3, 5] | Number of New Zealand rabbit eyes with conjunctival congestion [3, 5] | Number of New Zealand rabbit eyes with corneal edema [3, 5] | Number of New Zealand rabbit eyes with neovascularization [3, 5] | Number of New Zealand rabbit eyes with appearance of fluorescein-stained spots [3, 6] | Number of New Zealand rabbit eyes with conjunctival congestion [3, 6] | Number of New Zealand rabbit eyes with corneal edema [3, 6] | Number of New Zealand rabbit eyes with neovascularization [3, 6] | further results
C[C@H]1[C@H](OCCC[N+](C)(C)C)O[C@@H]2O[C@@]3(C)CC[C@H]4[C@H](C)CC[C@@H]1C24OO3 [SZY1905-P30, artemisinin quaternary ammonium propyl ether iodate] | 97.09 | 96.91 | 97.04 | 97.28 | 97.23 | 96.90 | 97.01 | can delay the rapid formation of new blood vessels significantly better than the SZY1905-P32 eye drops-administered group | 12 | 2 | 8 | 0 | 6 | 0 | 2 | 3 | 5 | 0 | 1 | 4 | Stability, 30th day (%) ([1]; pH = 5.0, 10 mg in 10 mL): 97.25%; Stability, 0 day (%) ([1]; pH = 6.0, 10 mg in 10 mL): 97.24%; Stability, 8th day (%) ([1]; pH = 6.0, 10 mg in 10 mL): 96.95%; Stability, 20th day (%) ([1]; pH = 6.0, 10 mg in 10 mL): 96.81%; Stability, 30th day (%) ([1]; pH = 6.0, 10 mg in 10 mL): 97.23%; Stability, 0 day (%) ([1]; pH = 7.0, 10 mg in 10 mL): 97.34%; Stability, 8th day (%) ([1]; pH = 7.0, 10 mg in 10 mL): 97.09%; Stability, 20th day (%) ([1]; pH = 7.0, 10 mg in 10 mL): 96.97%; Stability, 30th day (%) ([1]; pH = 7.0, 10 mg in 10 mL): 97.26%; Stability, 0 day (%) ([1]; pH = 8.0, 10 mg in 10 mL): 97.22%; Stability, 8th day (%) ([1]; pH = 8.0, 10 mg in 10 mL): 97.13%; Stability, 20th day (%) ([1]; pH = 8.0, 10 mg in 10 mL): 96.98%; Stability, 30th day (%) ([1]; pH = 8.0, 10 mg in 10 mL): 97.13%; solubility ([2]; aqueous solution adjusted with phosphoric acid and NaOH, 25 °C, pH 5, aqueous buffer): > 1000 µg/mL; solubility ([2]; aqueous solution adjusted with phosphoric acid and NaOH, 25 °C, pH 6, aqueous buffer): > 1000 µg/mL; solubility ([2]; aqueous solution adjusted with phosphoric acid and NaOH, 25 °C, pH 7, aqueous buffer): > 1000 µg/mL; solubility ([2]; aqueous solution adjusted with phosphoric acid and NaOH, 25 °C, pH 8, aqueous buffer): > 1000 µg/mL; solubility ([2]; purified water, 25 °C, water): > 10000 µg/mL
C[C@H]1[C@H](OCCCC[N+](C)(C)C)O[C@@H]2O[C@@]3(C)CC[C@H]4[C@H](C)CC[C@@H]1C24OO3.[I-] [SZY1905-P31, artemisinin quaternary ammonium butyl ether iodate] | 98.05 | 97.68 | 97.35 | 97.46 | 98.11 | 97.69 | 97.38 | can delay the rapid formation of new blood vessels significantly better than the SZY1905-P32 eye drops-administered group | 12 | 2 | 9 | 0 | 7 | 0 | 3 | 3 | 6 | 0 | 3 | 3 | Stability, 30th day (%) ([1]; pH = 5.0, 10 mg in 10 mL): 97.48%; Stability, 0 day (%) ([1]; pH = 6.0, 10 mg in 10 mL): 98.16%; Stability, 8th day (%) ([1]; pH = 6.0, 10 mg in 10 mL): 97.64%; Stability, 20th day (%) ([1]; pH = 6.0, 10 mg in 10 mL): 97.39%; Stability, 30th day (%) ([1]; pH = 6.0, 10 mg in 10 mL): 97.48%; Stability, 0 day (%) ([1]; pH = 7.0, 10 mg in 10 mL): 98.26%; Stability, 8th day (%) ([1]; pH = 7.0, 10 mg in 10 mL): 97.85%; Stability, 20th day (%) ([1]; pH = 7.0, 10 mg in 10 mL): 97.57%; Stability, 30th day (%) ([1]; pH = 7.0, 10 mg in 10 mL): 97.58%; Stability, 0 day (%) ([1]; pH = 8.0, 10 mg in 10 mL): 98.14%; Stability, 8th day (%) ([1]; pH = 8.0, 10 mg in 10 mL): 97.64%; Stability, 20th day (%) ([1]; pH = 8.0, 10 mg in 10 mL): 97.33%; Stability, 30th day (%) ([1]; pH = 8.0, 10 mg in 10 mL): 97.49%; solubility ([2]; Purified water, 25° C. (room temperature)): >10000 µg/mL; solubility ([2]; pH 5.0, 25° C. (room temperature)): >1000 µg/mL; solubility ([2]; pH 6.0, 25° C. (room temperature)): >1000 µg/mL; solubility ([2]; pH 7.0, 25° C. (room temperature)): >1000 µg/mL; solubility ([2]; pH 8.0, 25° C. (room temperature)): >1000 µg/mL
C[C@H]1[C@H](OCCCN)O[C@@H]2O[C@@]3(C)CC[C@H]4[C@H](C)CC[C@@H]1C24OO3 [SZY1905-P32, reference compound] |  |  |  |  |  |  |  | new vessels have spread to the entire cornea | 10 | 1 | 8 | 0 | 9 | 0 | 4 | 6 | 8 | 0 | 3 | 7 | 
